PubChem BioAssay AID1259407 (Chemical Carcinogenesis Research Information System (CCRIS), 2018)
Calls of active or inactive are those of the source. How the calls were made is not given here.

Tested on: CCRIS mutagenicity, Ames/micronucleus/aberration tests
Assay: CCRIS mutagenicity studies
[1] = Test System: AMES SALMONELLA TYPHIMURIUM, Strain/Indicator: TA102, Metabolic Activation: NONE, Method: STANDARD PLATE

SMILES: CCN(CC)C(=O)Nc1ccc(OCC(O)CNC(C)(C)C)c(C(C)=O)c1 (configuration not stated)
- mutagenic call (Test System: AMES SALMONELLA TYPHIMURIUM, Strain/Indicator: TA97, Metabolic Activation: NONE, Method: STANDARD PLATE): inactive; negative
- mutagenic call (Test System: AMES SALMONELLA TYPHIMURIUM, Strain/Indicator: TA98, Metabolic Activation: NONE, Method: STANDARD PLATE): inactive; negative
- mutagenic call (Test System: AMES SALMONELLA TYPHIMURIUM, Strain/Indicator: TA98, Metabolic Activation: RAT, LIVER, S-9, AROCLOR 1254, Method: STANDARD PLATE): inactive; negative
- mutagenic call (Test System: AMES SALMONELLA TYPHIMURIUM, Strain/Indicator: TA98, Metabolic Activation: RAT, S-9, AROCLOR 1254, Method: STANDARD PLATE): inactive; negative
- mutagenic call (Test System: AMES SALMONELLA TYPHIMURIUM, Strain/Indicator: TA100, Metabolic Activation: NONE, Method: STANDARD PLATE): inactive; negative
- mutagenic call (Test System: AMES SALMONELLA TYPHIMURIUM, Strain/Indicator: TA100, Metabolic Activation: RAT, LIVER, S-9, AROCLOR 1254, Method: STANDARD PLATE): inactive; negative
- mutagenic call (Test System: AMES SALMONELLA TYPHIMURIUM, Strain/Indicator: TA100, Metabolic Activation: RAT, S-9, AROCLOR 1254, Method: STANDARD PLATE): inactive; negative
- mutagenic call [1]: inactive; negative
- mutagenic call (Test System: AMES SALMONELLA TYPHIMURIUM, Strain/Indicator: TA1535, Metabolic Activation: NONE, Method: STANDARD PLATE): inactive; negative
- mutagenic call (Test System: AMES SALMONELLA TYPHIMURIUM, Strain/Indicator: TA1535, Metabolic Activation: RAT, S-9, AROCLOR 1254, Method: STANDARD PLATE): inactive; negative
- mutagenic call (Test System: AMES SALMONELLA TYPHIMURIUM, Strain/Indicator: TA1537, Metabolic Activation: NONE, Method: STANDARD PLATE): inactive; negative
- mutagenic call (Test System: AMES SALMONELLA TYPHIMURIUM, Strain/Indicator: TA1537, Metabolic Activation: RAT, S-9, AROCLOR 1254, Method: STANDARD PLATE): inactive; negative
- mutagenic call (Test System: AMES SALMONELLA TYPHIMURIUM, Strain/Indicator: TA1538, Metabolic Activation: NONE, Method: STANDARD PLATE): inactive; negative
- mutagenic call (Test System: AMES SALMONELLA TYPHIMURIUM, Strain/Indicator: TA1538, Metabolic Activation: RAT, S-9, AROCLOR 1254, Method: STANDARD PLATE): inactive; negative
- mutagenic call (Test System: E. COLI, Strain/Indicator: WP2, Metabolic Activation: NONE, Method: STANDARD PLATE): inactive; negative
- mutagenic call (Test System: E. COLI, Strain/Indicator: WP2, Metabolic Activation: RAT, S-9, AROCLOR 1254, Method: STANDARD PLATE): inactive; negative
- mutagenic call (Test System: E. COLI, Strain/Indicator: WP2 UVRA, Metabolic Activation: NONE, Method: STANDARD PLATE): inactive; negative
- mutagenic call (Test System: E. COLI, Strain/Indicator: WP2 UVRA, Metabolic Activation: RAT, S-9, AROCLOR 1254, Method: STANDARD PLATE): inactive; negative

SMILES: Cc1ccc(O)cc1
- mutagenic call (Test System: Ames Salmonella typhimurium, Strain/Indicator: TA98, Metabolic Activation: Hamster, Liver, S-9, Aroclor 1254 (10%), Method: Preincubation): inactive; negative
- mutagenic call (Test System: Ames Salmonella typhimurium, Strain/Indicator: TA98, Metabolic Activation: None, Method: Preincubation): inactive; negative
- mutagenic call (Test System: Ames Salmonella typhimurium, Strain/Indicator: TA98, Metabolic Activation: Rat, Liver, S-9, Aroclor 1254 (10%), Method: Preincubation): inactive; negative
- mutagenic call (Test System: Ames Salmonella typhimurium, Strain/Indicator: TA100, Metabolic Activation: Rat, Liver, S-9, Aroclor 1254 (10%), Method: Preincubation): inactive; negative
- mutagenic call (Test System: Ames Salmonella typhimurium, Strain/Indicator: TA1535, Metabolic Activation: Rat, Liver, S-9, Aroclor 1254 (10%), Method: Preincubation): inactive; negative
- mutagenic call (Test System: Ames Salmonella typhimurium, Strain/Indicator: TA1537, Metabolic Activation: Rat, Liver, S-9, Aroclor 1254 (10%), Method: Preincubation): inactive; negative

SMILES: CCOP(=O)(OCC)OCC
- mutagenic call (Test System: AMES SALMONELLA TYPHIMURIUM, Strain/Indicator: TA98, Metabolic Activation: HAMSTER, LIVER, S-9, AROCLOR 1254 (10%), Method: PREINCUBATION): inactive; negative
- mutagenic call (Test System: AMES SALMONELLA TYPHIMURIUM, Strain/Indicator: TA98, Metabolic Activation: NONE, Method: PREINCUBATION): inactive; negative
- mutagenic call (Test System: AMES SALMONELLA TYPHIMURIUM, Strain/Indicator: TA98, Metabolic Activation: RAT, LIVER, S-9, AROCLOR 1254 (10%), Method: PREINCUBATION): inactive; negative
- mutagenic call (Test System: AMES SALMONELLA TYPHIMURIUM, Strain/Indicator: TA100, Metabolic Activation: HAMSTER, LIVER, S-9, AROCLOR 1254 (10%), Method: PREINCUBATION): inactive; negative
- mutagenic call (Test System: AMES SALMONELLA TYPHIMURIUM, Strain/Indicator: TA100, Metabolic Activation: NONE, Method: PREINCUBATION): inactive; negative
- mutagenic call (Test System: AMES SALMONELLA TYPHIMURIUM, Strain/Indicator: TA100, Metabolic Activation: RAT, LIVER, S-9, AROCLOR 1254 (10%), Method: PREINCUBATION): inactive; negative
- mutagenic call [1]: inactive; negative
- mutagenic call (Test System: AMES SALMONELLA TYPHIMURIUM, Strain/Indicator: TA1535, Metabolic Activation: HAMSTER, LIVER, S-9, AROCLOR 1254 (10%), Method: PREINCUBATION): inactive; negative
- mutagenic call (Test System: AMES SALMONELLA TYPHIMURIUM, Strain/Indicator: TA1535, Metabolic Activation: NONE, Method: PREINCUBATION): inactive; negative
- mutagenic call (Test System: AMES SALMONELLA TYPHIMURIUM, Strain/Indicator: TA1535, Metabolic Activation: RAT, LIVER, S-9, AROCLOR 1254 (10%), Method: PREINCUBATION): inactive; negative
- mutagenic call (Test System: AMES SALMONELLA TYPHIMURIUM, Strain/Indicator: TA1537, Metabolic Activation: HAMSTER, LIVER, S-9, AROCLOR 1254 (10%), Method: PREINCUBATION): inactive; negative
- mutagenic call (Test System: AMES SALMONELLA TYPHIMURIUM, Strain/Indicator: TA1537, Metabolic Activation: NONE, Method: PREINCUBATION): inactive; negative
- mutagenic call (Test System: AMES SALMONELLA TYPHIMURIUM, Strain/Indicator: TA1537, Metabolic Activation: RAT, LIVER, S-9, AROCLOR 1254 (10%), Method: PREINCUBATION): inactive; negative
- mutagenic call (Test System: AMES SALMONELLA TYPHIMURIUM, Strain/Indicator: TA2638, Metabolic Activation: NONE, Method: STANDARD PLATE): inactive; negative
- mutagenic call (Test System: E. COLI, Strain/Indicator: WP2 (PKM101), Metabolic Activation: NONE, Method: STANDARD PLATE): inactive; negative
- mutagenic call (Test System: E. COLI, Strain/Indicator: WP2 UVRA (PKM101), Metabolic Activation: NONE, Method: STANDARD PLATE): inactive; negative

SMILES: Cn1c(N)nc2nc3cccnc3cc21
- mutagenic call (Test System: AMES SALMONELLA TYPHIMURIUM, Strain/Indicator: TA98, Metabolic Activation: RAT, LIVER, S-9, AROCLOR 1254A, Method: STANDARD PLATE): inactive; negative
- mutagenic call (Test System: AMES SALMONELLA TYPHIMURIUM, Strain/Indicator: YG1024, Metabolic Activation: RAT, LIVER, S-9, AROCLOR 1254A, Method: STANDARD PLATE): active; positive
